Measurements taken from patent US20190374481A1, “ADMINISTRATION REGIMEN FOR A PHARMACEUTICAL PATCH COMPRISING LIDOCAINE AND DICLOFENAC” (TEIKOKU SEIYAKU CO., LTD., priority 2017, published 2019).

Columns and labels:
[1] = system: CFA-induced edema of paw / mechanical-hyperalgesia; test: CFA-hindpaw inflammation, paw pressure test (CFA-PPT), topical application to the paw; type: in vivo, rat
Experimental: In comparative example 2 and inventive examples 5 to 8 as described below, a compound or combination of compounds was administered topically to the paw by means of an ointment or solution (FIGS. 10 to 18).
The efficacy was tested when a compound or a compositions of compounds was administered topically as an ointment or a solution. The study was performed on male albino rats (150-180 g body weight) to which an edema of paw was induced by injection of Complete Freunds Adjuvant (CFA). CFA is a composition of inactivated and dried Myobacteria tuberculoses, emulsified in mineral oil which is used as an immunopotentiator causing a painful reaction that lasts 7-8 days after subcutaneous injection.
The studies of comparative example 2 and inventive examples 5 to 8 were performed according to the following procedure: 50 μL of CFA were injected sub plantar into the right hind paw, inducing mechanical-hyperalgesia after 24 hours. […]
The pain was measured by pressing a pointer on the inflamed paw. The pointer exerts a force, increasing at a constant rate, monitored by a linear scale. […] Efficacy of the test compounds is expressed as a percent change of withdrawal threshold after compound administration to the pre-value (withdrawal threshold before compound administration).

CFA-hindpaw inflammation = test: CFA-hindpaw inflammation, paw pressure test (CFA-PPT), intraperitoneal injection; type: in vivo, rat
Experimental: An interaction study was performed as a single dose study in the CFA-hindpaw inflammation, paw pressure test.
In comparative example 1 and inventive examples 1 to 4 described below, a compound or combination of compounds was administered by intraperitoneal injection (FIGS. 1 to 9).
The pain was measured by pressing a pointer on the inflamed paw. The pointer exerts a force, increasing at a constant rate, monitored by a linear scale. Pain is deemed to be perceived one the rat starts to withdraw the paw. This value (withdrawal threshold in gram) is the pressure at which the animal feels pain (cut-off 450 g). Efficacy of the test compounds is expressed as a percent change of withdrawal threshold after compound administration to the pre-value (withdrawal threshold before compound administration).

Row | Compound | efficacy in CFA-PPT when topically administered alone ([1]; Diclofenac alone, 40 mg/ml to 80 mg/ml) | efficacy in CFA-PPT when administered alone (CFA-hindpaw inflammation; Diclofenac alone, dose range 21.5 mg/kg to 100 mg/kg ip) | efficacy in CFA-PPT when topically administered alone ([1]; Lidocaine alone, 30 mg/ml to 60 mg/ml) | efficacy in CFA-PPT when administered alone (CFA-hindpaw inflammation; Lidocaine alone, dose range 10 mg/kg to 46.4 mg/kg ip)
1 | O=C(O)Cc1ccccc1Nc1c(Cl)cccc1Cl [Diclofenac, 2-(2,6-dichloranilino) phenylacetic acid] | dose dependent efficacy | dose dependent efficacy | – | –
2 | CCN(CC)CC(=O)Nc1c(C)cccc1C [Lidocaine, 2-(diethylamino)-N-(2,6-dimethylphenyl)acetamide] | – | – | dose dependent efficacy | dose dependent efficacy
